Data reported in patent US20240360178A1, “MACROCYCLIC IMMUNOMODULATORS” (Bristol-Myers Squibb Company, priority 2021, published 2024).
pIC50: −log10 of the molar value. Positions of bridges follow the written chain, without caps; N, C: chain ends. Non-standard residues stand in square brackets, D forms with d. Residues, ends and D or L forms follow the SMILES beside them. *: point of attachment. Phe(3,4,5-F3) = N[C@@H](Cc1cc(F)c(F)c(F)c1)C(=O)O; Bip = N[C@@H](Cc1ccc(-c2ccccc2)cc1)C(=O)O; Phe(3-Me) = Cc1cccc(C[C@H](N)C(=O)O)c1; Val(3-OH) = CC(C)(O)[C@H](N)C(=O)O; NMeF = CN[C@@H](Cc1ccccc1)C(=O)O; 4Pal = N[C@@H](Cc1ccncc1)C(=O)O; dTic = O=C(O)[C@H]1Cc2ccccc2CN1; Cha = N[C@@H](CC1CCCCC1)C(=O)O; dPip = O=C(O)[C@H]1CCCCN1; Carboxymethyl = O=C(O)C*; NMeA = CN[C@@H](C)C(=O)O; Nle = CCCC[C@H](N)C(=O)O; Orn = NCCC[C@H](N)C(=O)O; Dab = NCC[C@H](N)C(=O)O; Sar = CNCC(=O)O

Target: T1, human PD-1 (Jurkat-PD-1 cells) / PE-labeled human PD-L1-Ig (Homo sapiens, UniProt Q15116)
T1 construct: expressed in transfected cells; host or cells: Jurkat cell line over-expressing human PD-1
T1 sequence (Q15116 25-288): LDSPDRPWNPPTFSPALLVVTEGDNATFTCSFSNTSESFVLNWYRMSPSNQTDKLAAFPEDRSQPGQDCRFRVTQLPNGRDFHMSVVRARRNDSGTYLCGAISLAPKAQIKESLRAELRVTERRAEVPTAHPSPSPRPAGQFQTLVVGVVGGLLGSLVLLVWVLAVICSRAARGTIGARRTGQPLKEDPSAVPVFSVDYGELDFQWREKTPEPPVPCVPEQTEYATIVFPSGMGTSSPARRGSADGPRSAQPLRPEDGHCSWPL
Assay: Jurkat-PD-1 Cell Binding High-Content Screening Assay (CBA); Jurkat hPD1-PDL1 assay
Conditions: Jurkat cell line over-expressing human PD-1; PE-labeled PD-L1-Ig 20 nM final; compound incubated 2 hours at 37° C.; read-out: Jurkat HPD1-PDL1 IC50
Procedure, shortened: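 Cell binding by imaging: Jurkat line stably over-expressing human PD-1, compound pre-exposure 2 h at 37° C, PE-conjugated PD-L1-Ig 20 nM final, medium DMEM containing 10% FCS.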

| Structure (SMILES) | pIC50 |
| --- | --- |
| Cc1cccc(C[C@@H]2NC(=O)[C@H](CC(=O)O)NC(=O)[C@H](Cc3ccc(OCC(=O)O)cc3)NC(=O)[C@H](Cc3ccncc3)NC(=O)CSC[C@@H](C(=O)N[C@@H](CCN)C(N)=O)NC(=O)[C@H](CO)NC(=O)[C@H](C(C)(C)O)NC(=O)[C@H](CC3CCCCC3)NC(=O)[C@H](CCN)NC(=O)[C@H]3CCCN3C(=O)[C@H](C)N(C)C(=O)[C@H](Cc3ccc(OCC(=O)O)cc3)NC(=O)[C@H](Cc3ccc(-c4ccccc4)cc3)NC(=O)[C@H](Cc3ccc(OCC(=O)O)cc3)NC2=O)c1 [Example 1179] ({CH2CO}-[4Pal]Y(Carboxymethyl)D[Phe(3-Me)]Y(Carboxymethyl)[Bip]Y(Carboxymethyl)[NMeA][dP][Dab][Cha][Val(3-OH)]SC[Dab]-NH2; thioether N-14) | 7.10 |
| CC(C)C[C@@H]1NC(=O)[C@H](Cc2c[nH]c3ccccc23)NC(=O)[C@H](CC(=O)O)NC(=O)[C@H](Cc2ccc(O)cc2)NC(=O)[C@H](Cc2ccccc2)NC(=O)CSC[C@@H](C(=O)N[C@@H](CCN)C(N)=O)NC(=O)[C@H](CO)NC(=O)[C@H](C(C)C)NC(=O)[C@H](CC(C)C)NC(=O)[C@H](CC(N)=O)NC(=O)CN(C)C(=O)[C@H](C)N(C)C(=O)[C@H](C(C)C)NC(=O)[C@H](Cc2ccc(-c3ccccc3)cc2)NC1=O [Example 1103] ({CH2CO}-FYDWL[Bip]V[NMeA][Sar]NLVSC[Dab]-NH2; thioether N-14) | 6.51 |
| CC(C)C[C@@H]1NC(=O)[C@H](Cc2c[nH]c3ccccc23)NC(=O)[C@H](CC(=O)O)NC(=O)[C@H](Cc2ccc(O)cc2)NC(=O)[C@H](Cc2ccccc2)NC(=O)CSC[C@@H](C(=O)N[C@@H](C)C(N)=O)NC(=O)[C@H](CO)NC(=O)[C@H](C(C)C)NC(=O)[C@H](CC(C)C)NC(=O)[C@H](CC(N)=O)NC(=O)CN(C)C(=O)[C@H](C)N(C)C(=O)[C@H](CCC(=O)O)NC(=O)[C@H](Cc2ccc(-c3ccccc3)cc2)NC1=O [Example 1119] ({CH2CO}-FYDWL[Bip]E[NMeA][Sar]NLVSCA-NH2; thioether N-14) | 6.38 |
| CC(C)C[C@@H]1NC(=O)[C@H](Cc2c[nH]c3ccccc23)NC(=O)[C@H](CC(=O)O)NC(=O)[C@H](Cc2ccc(OCC(=O)O)cc2)NC(=O)[C@H](Cc2cnc[nH]2)NC(=O)CSC[C@@H](C(=O)N[C@@H](C)C(N)=O)NC(=O)[C@H](CO)NC(=O)[C@H](C(C)C)NC(=O)[C@H](CC(C)C)NC(=O)[C@H](CC(N)=O)NC(=O)[C@H]2CCCN2C(=O)[C@H](C)N(C)C(=O)[C@H](C(C)C)NC(=O)[C@H](Cc2ccc(-c3ccccc3)cc2)NC1=O [Example 1052] ({CH2CO}-HY(Carboxymethyl)DWL[Bip]V[NMeA][dP]NLVSCA-NH2; thioether N-14) | 6.92 |
| CC(C)C[C@@H]1NC(=O)[C@H](CCN)NC(=O)[C@H](Cc2ccccc2)N(C)C(=O)[C@H](C)N(C)C(=O)[C@H](CCC(=O)O)NC(=O)[C@H](Cc2ccc(-c3ccccc3)cc2)NC(=O)[C@H](C(C)C)NC(=O)[C@H](Cc2c[nH]c3ccccc23)NC(=O)[C@H](CC(=O)O)NC(=O)[C@H](Cc2ccc(O)cc2)NC(=O)[C@H](Cc2ccccc2)NC(=O)CSC[C@@H](C(=O)N[C@@H](C)C(N)=O)NC(=O)[C@H]([C@@H](C)O)NC(=O)[C@H](C(C)C)NC1=O [Example 1342] ({CH2CO}-FYDWV[Bip]E[NMeA][NMeF][Dab]LVTCA-NH2; thioether N-14) | 7.15 |
| CC(C)C[C@@H]1NC(=O)[C@H](CC(N)=O)NC(=O)[C@H](Cc2ccccc2)N(C)C(=O)[C@H](C)N(C)C(=O)[C@H](CCCNC(=N)N)NC(=O)[C@H](Cc2ccc(-c3ccccc3)cc2)NC(=O)[C@H](C(C)C)NC(=O)[C@H](Cc2c[nH]c3ccccc23)NC(=O)[C@H](CC(=O)O)NC(=O)[C@H](Cc2ccc(O)cc2)NC(=O)[C@H](Cc2ccccc2)NC(=O)CSC[C@@H](C(=O)NCC(N)=O)NC(=O)[C@H](CO)NC(=O)[C@H](C(C)C)NC1=O [Example 1207] ({CH2CO}-FYDWV[Bip]R[NMeA][NMeF]NLVSCG-NH2; thioether N-14) | 6.49 |
| CC(C)C[C@@H]1NC(=O)[C@H](CCCN)NC(=O)[C@H]2Cc3ccccc3CN2C(=O)[C@H](C)N(C)C(=O)[C@H](CCCNC(=N)N)NC(=O)[C@H](Cc2ccc(-c3ccccc3)cc2)NC(=O)[C@H](C(C)C)NC(=O)[C@H](Cc2c[nH]c3ccccc23)NC(=O)[C@H](CC(=O)O)NC(=O)[C@H](Cc2ccc(O)cc2)NC(=O)[C@H](CC(N)=O)NC(=O)CSC[C@@H](C(=O)N[C@@H](C)C(N)=O)NC(=O)[C@H]([C@@H](C)O)NC(=O)[C@H](C(C)C)NC1=O [Example 1356] ({CH2CO}-NYDWV[Bip]R[NMeA][dTic][Orn]LVTCA-NH2; thioether N-14) | 6.57 |
| CC(C)C[C@@H]1NC(=O)[C@H](Cc2c[nH]c3ccccc23)NC(=O)[C@H](CC(=O)O)NC(=O)[C@H](Cc2ccncc2)NC(=O)[C@H](Cc2ccc(OCC(=O)O)cc2)NC(=O)CSC[C@@H](C(=O)N[C@@H](C)C(N)=O)NC(=O)[C@H](CO)NC(=O)[C@H](C(C)C)NC(=O)[C@H](CC(C)C)NC(=O)[C@H](CC(N)=O)NC(=O)[C@H]2CCCN2C(=O)[C@H](C)N(C)C(=O)[C@H](C(C)C)NC(=O)[C@H](Cc2ccc(-c3ccccc3)cc2)NC1=O [Example 1435] ({CH2CO}-Y(Carboxymethyl)[4Pal]DWL[Bip]V[NMeA][dP]NLVSCA-NH2; thioether N-14) | 7.05 |
| CC(C)C[C@@H]1NC(=O)[C@H](CCCNC(=N)N)NC(=O)CN(C)C(=O)[C@H](C)N(C)C(=O)[C@H](C(C)C)NC(=O)[C@H](Cc2ccc(-c3ccccc3)cc2)NC(=O)[C@H](C(C)C)NC(=O)[C@H](Cc2c[nH]c3ccccc23)NC(=O)[C@H](CC(=O)O)NC(=O)[C@H](Cc2ccc(O)cc2)NC(=O)[C@H](Cc2ccccc2)NC(=O)CSC[C@@H](C(=O)NCC(N)=O)NC(=O)[C@H](CO)NC(=O)[C@H](C(C)C)NC1=O [Example 1230] ({CH2CO}-FYDWV[Bip]V[NMeA][Sar]RLVSCG-NH2; thioether N-14) | 7.22 |
| CC(C)C[C@@H]1NC(=O)[C@H](CCCNC(=N)N)NC(=O)[C@H](Cc2ccccc2)N(C)C(=O)[C@H]2CCCN2C(=O)[C@H](CCCNC(=N)N)NC(=O)[C@H](Cc2ccc(-c3ccccc3)cc2)NC(=O)[C@H](C(C)C)NC(=O)[C@H](Cc2c[nH]c3ccccc23)NC(=O)[C@H](CC(=O)O)NC(=O)[C@H](Cc2ccc(O)cc2)NC(=O)[C@H](CC(N)=O)NC(=O)CSC[C@@H](C(=O)N[C@@H](C)C(N)=O)NC(=O)[C@H]([C@@H](C)O)NC(=O)[C@H](C(C)C)NC1=O [Example 1362] ({CH2CO}-NYDWV[Bip]R[dP][NMeF]RLVTCA-NH2; thioether N-14) | 6.72 |
| CCCC[C@@H]1NC(=O)CSC[C@@H](C(=O)NCC(N)=O)NC(=O)[C@H](CO)NC(=O)[C@H](C(C)C)NC(=O)[C@H](CC(C)C)NC(=O)[C@H](CC(N)=O)NC(=O)CN(C)C(=O)[C@H](C)N(C)C(=O)[C@H](C(C)C)NC(=O)[C@H](Cc2ccc(-c3ccccc3)cc2)NC(=O)[C@H](CC(C)C)NC(=O)[C@H](Cc2c[nH]c3ccccc23)NC(=O)[C@H](CC(=O)O)NC(=O)[C@H](Cc2ccc(O)cc2)NC1=O [Example 1100] ({CH2CO}-[Nle]YDWL[Bip]V[NMeA][Sar]NLVSCG-NH2; thioether N-14) | 6.51 |
| CC[C@H](C)[C@@H]1NC(=O)[C@H](CC(C)C)NC(=O)[C@H](CC(N)=O)NC(=O)CN(C)C(=O)[C@H](C)N(C)C(=O)[C@H](C(C)C)NC(=O)[C@H](Cc2ccc(-c3ccccc3)cc2)NC(=O)[C@H](CC(C)C)NC(=O)[C@H](Cc2c[nH]c3ccccc23)NC(=O)[C@H](CC(=O)O)NC(=O)[C@H](Cc2ccc(O)cc2)NC(=O)[C@H](Cc2ccccc2)NC(=O)CSC[C@@H](C(=O)NCC(N)=O)NC(=O)[C@H](CO)NC1=O [Example 1142] ({CH2CO}-FYDWL[Bip]V[NMeA][Sar]NLISCG-NH2; thioether N-14) | 6.21 |
| CC(C)C[C@@H]1NC(=O)[C@H](CCCNC(=N)N)NC(=O)[C@H](Cc2ccccc2)N(C)C(=O)[C@H](C)N(C)C(=O)[C@H](CCCNC(=N)N)NC(=O)[C@H](Cc2ccc(-c3ccccc3)cc2)NC(=O)[C@H](C(C)C)NC(=O)[C@H](Cc2c[nH]c3ccccc23)NC(=O)[C@H](CC(=O)O)NC(=O)[C@H](Cc2ccncc2)NC(=O)[C@H](CC(N)=O)NC(=O)CSC[C@@H](C(=O)N[C@@H](C)C(N)=O)NC(=O)[C@H]([C@@H](C)O)NC(=O)[C@H](C(C)C)NC1=O [Example 1349] ({CH2CO}-N[4Pal]DWV[Bip]R[NMeA][NMeF]RLVTCA-NH2; thioether N-14) | 6.48 |
| CC(C)C[C@@H]1NC(=O)[C@H](Cc2c[nH]c3ccccc23)NC(=O)[C@H](CC(=O)O)NC(=O)[C@H](Cc2cc(F)c(F)c(F)c2)NC(=O)[C@H](Cc2ccccc2)NC(=O)CSC[C@@H](C(=O)N[C@@H](C)C(N)=O)NC(=O)[C@H](CO)NC(=O)[C@H](C(C)C)NC(=O)[C@H](CC(C)C)NC(=O)[C@H](CC(N)=O)NC(=O)CN(C)C(=O)[C@H](C)N(C)C(=O)[C@H](C(C)C)NC(=O)[C@H](Cc2ccc(-c3ccccc3)cc2)NC1=O [Example 1146] ({CH2CO}-F[Phe(3,4,5-F3)]DWL[Bip]V[NMeA][Sar]NLVSCA-NH2; thioether N-14) | 6.19 |
| Cc1cccc(C[C@@H]2NC(=O)[C@H](CC(=O)O)NC(=O)[C@H](Cc3ccc(OCC(=O)O)cc3)NC(=O)[C@H](CCCNC(=N)N)NC(=O)CSC[C@@H](C(=O)N[C@@H](CCN)C(N)=O)NC(=O)[C@H](CO)NC(=O)[C@H](C(C)(C)O)NC(=O)[C@H](CC3CCCCC3)NC(=O)[C@H](CCN)NC(=O)[C@H]3CCCCN3C(=O)[C@H]3CCCN3C(=O)[C@H](Cc3ccc(OCC(=O)O)cc3)NC(=O)[C@H](Cc3ccc(-c4ccccc4)cc3)NC(=O)[C@H](Cc3ccc(OCC(=O)O)cc3)NC2=O)c1 [Example 1190] ({CH2CO}-RY(Carboxymethyl)D[Phe(3-Me)]Y(Carboxymethyl)[Bip]Y(Carboxymethyl)[dP][dPip][Dab][Cha][Val(3-OH)]SC[Dab]-NH2; thioether N-14) | 6.26 |
